System: las quorum sensing system (lasB-gfp(ASV) expression)
Assay: PlasB-gfp(ASV) reporter in planktonic wild type P. aeruginosa PAO1
Assay type: cell-based, Pseudomonas aeruginosa
Conditions: for reduction in lasB(ASV) expression: wild type P. aeruginosa
Experimental: AHL and furanone bioassay. Strains were grown exponentially in LB or ABt medium supplemented with 0.5% glucose at 30° C., shading at 250 rpm. At an optical density of approximately 0.8. the cultures were diluted and split into subcultures in glass culture flasks. AHLs and furanone 56 were added to appropriate concentrations and the cultures were further incubated at 30° C. under vigorous shaking. Culture samples were retrieved at various time intervals and green fluorescence was measured with a fluorometer (model RF-1501, Shimadzu, Tokyo, Japan) set at an excitation wavelength of 475 nm and emission wavelength of 515 nm. Relative fluorescence was calculated as green fluorescence normalized to 1 ml culture divided by the optical density (OD600 nm.
The PlasB-gfp(ASV) reporter was inserted into the chromosome of wild type P. aeruginosa. […] The quorum size for lasB-gfp(ASV) induction corresponded to a cell density slightly above […] of 1.0, which is in agreement with other reports (Brumilk & Storey, 1992).

## O=C1C=C/C(=C/Br)O1 [furanone 56]
5 μg/ml (28.5 μM) furanone
  reduction in lasB(ASV) expression: 40%
10 μg/ml furanone
  reduction in lasB(ASV) expression: 60%
Planktonic cultures of PAO1
  reduction of transcription of the lasB promoter: approximately 2 fold
